US20240319167A1, “CELL INFORMATION ACQUISITION METHOD, AND PROGRAM” (CANON KABUSHIKI KAISHA, priority 2023, published 2024)

Tests used:
NCI-H322 cells = assay: Autofluorescence luminance ratio (G component/B component) after adding metabolism changing reagent; type: cell-based, human; conditions: antimycin A 1 μM where added, incubated an hour after D-glucose removal, FIG. 3
Experimental: (§1) Human lung cancer cells NCI-H322 (KAC Co., Ltd.) were cultured in a culture medium 103 for cell culture (KAC Co., Ltd.). Human lung cancer cells COR-L23 (KAC Co., Ltd.) were cultured in a culture medium 103 for cell culture (KAC Co., Ltd.). A cell culture vessel was a 35 mm glass bottom dish (IWAKI) for any case. […] The area of a nucleus region was acquired and labelled. […] Average value of G component/Average value of B component was calculated cell by cell and plotted as a box-and-whisker plot (FIG. 3). […] NCI-H322 cells were cultured in a 35 mm glass bottom dish, and COR-L23 cells were cultured in a 35 mm glass bottom dish. […] As negative control, only removal of D-glucose was performed for both NCI-H322 cells and COR-L23 cells to create samples not added with a metabolism changing reagent. An autofluorescence image of each of the samples was captured. Subsequently, nuclear staining and mitochondria staining were performed to stain nuclei and mitochondria, and similarly stained images were captured with an image capturing apparatus.

COR-L23 cells = assay: as above; type: cell-based, human; conditions: antimycin A 1 μM where added, incubated an hour after D-glucose removal, FIG. 3
Experimental: as §1

O=C[C@H](O)[C@@H](O)[C@H](O)[C@H](O)CO [D-glucose]
G component/B component of autofluorescence (365 nm excitation/430 nm long pass filter) versus negative control (NCI-H322 cells): no significant difference
G component/B component of autofluorescence (365 nm excitation/430 nm long pass filter) versus negative control (COR-L23 cells): no significant difference
